In ChEMBL document CHEMBL4431301, “The Medicinal Chemistry of Dengue Virus” (J Med Chem, 2016):

Key:
dengue virus type 2 [1] = experiment: Antiviral activity against Dengue virus 2 PL046 infected in mouse J774A.1 cells by immunofluorescence analysis; type: functional, organism-based; conditions: PL046, J774.A1
dengue virus type 2 [2] = experiment: Antiviral activity against Dengue virus 2 PL046 infected in […] Hepa1-6 cells by immunofluorescence analysis; type: functional, organism-based; conditions: PL046, Hepa1-6
dengue virus type 2 [3] = experiment: Antiviral activity against Dengue virus 2 PL046 infected in human A549 cells by immunofluorescence analysis; type: functional, organism-based
dengue virus type 2 [4] = experiment: Antiviral activity against Dengue virus 2 PL046 infected in human WS1 cells by immunofluorescence analysis; type: functional, organism-based
dengue virus type 2 [5] = experiment: Antiviral activity against Dengue virus 2 infected in human Huh7 cells assessed as reduction in viral replication after 48 hrs by plaque assay; type: functional, organism-based; conditions: Huh-7, 48 h
dengue virus type 4 [6] = experiment: Antiviral activity against Dengue virus 4 infected in human Huh7 cells assessed as reduction in viral replication after 48 hrs by plaque assay; type: functional, organism-based; conditions: Huh-7, 48 h
dengue virus type 3 [7] = experiment: Antiviral activity against Dengue virus 3 infected in human Huh7 cells assessed as reduction in viral replication after 48 hrs by plaque assay; type: functional, organism-based; conditions: Huh-7, 48 h
dengue virus type 1 [8] = experiment: Antiviral activity against Dengue virus 1 infected in human Huh7 cells assessed as reduction in viral replication after 48 hrs by plaque assay; type: functional, organism-based; conditions: Huh-7, 48 h
West Nile virus [9] = experiment: Antiviral activity against West Nile virus Kunjin preincubated for 30 mins with virus followed by cell infection for 2 hrs measured after 3 days by crystal violet staining based plaque reduction assay; type: functional, organism-based
Yellow fever virus = experiment: Antiviral activity against Yellow fever virus 17D Vaccine preincubated for 30 mins with virus followed by cell infection for 2 hrs measured after 6 days by crystal violet staining based plaque reduction assay; type: functional, organism-based
dengue virus type 2 [10] = experiment: Antiviral activity against Dengue virus 2 NGC preincubated for 30 mins with virus followed by cell infection for 2 hrs measured after 5 days by immunostaining based plaque reduction assay; type: functional, organism-based
[11] = Selectivity index, ratio of CC50 for african green monkey Vero cells to EC50 for Dengue virus 2 NGC; type: toxicity; conditions: read-out: Ratio CC50/EC50
dengue virus type 2 [12] = experiment: Antiviral activity against Dengue virus 2 NGC infected in african green monkey Vero cells assessed as reduction in viral titer after 42 hrs by plaque assay; type: functional
West Nile virus [13] = experiment: Antiviral activity against West Nile virus infected in african green monkey Vero cells assessed as reduction in viral titer after 42 hrs by plaque assay; type: functional
dengue virus type 1 [14] = experiment: Antiviral activity against Dengue virus 1 infected in human PBMC assessed as reduction in viral titer after 48 hrs preincubated with cells prior to ADE-mediated viral infection by plaque assay; type: functional, organism-based
[15] = Inhibition of biotinylated Imp-alpha/beta1 (unknown origin) binding to Dengue virus NS5 by alpha screen assay; design: species or system Homo sapiens
dengue virus type 2 [16] = experiment: Antiviral activity against Dengue virus 2 infected in BHK-pD2hRucPac cells assessed as reduction in virus replication after 72 hrs by renilla luciferase reporter gene assay; type: functional, organism-based
[17] = Inhibition of Dengue virus 2 16681 NS5 guanylation expressed in Escherichia coliBL21(DE3) cells after 4 hrs by coomassie blue staining based SDS-PAGE method; design: species or system dengue virus type 2
dengue virus type 2 [18] = experiment: Antiviral activity against Dengue virus 2 NGC infected in african green monkey Vero cells assessed as reduction in viral titer preincubated for 1 hr followed by viral infection measured after 5 days by plaque assay; type: functional, organism-based
[19] = Oral bioavailability in Balb/c mouse at 200 mg/kg after 5 mins to 48 hrs by LC-MS/MS analysis; type: ADME, organism-based; conditions: in vivo
[20] = Cytotoxicity against african green monkey Vero cells; type: cell-based; conditions: chlorocebus sabaeus
dengue virus type 3 [21] = experiment: Antiviral activity against Dengue virus 3 by CFI assay; type: functional, organism-based
dengue virus type 2 [22] = experiment: Antiviral activity against Dengue virus 2 NGC infected in african green monkey Vero cells assessed as reduction in viral titer preincubated for 2 hrs measured after 4 days by qRT-PCR; type: functional, organism-based
dengue virus type 4 [23] = experiment: Antiviral activity against Dengue virus 4 by CFI assay; type: functional, organism-based
[24] = Inhibition of GST-fused Imp-alpha/beta1 (unknown origin) binding to Dengue virus NS5 after 2 hrs by alpha screen assay; design: species or system Homo sapiens
West Nile virus [25] = experiment: Antiviral activity against West Nile virus NY99 infected in african green monkey Vero cells assessed as reduction in viral titer preincubated for 2 hrs measured after 4 days by qRT-PCR; type: functional, organism-based
dengue virus type 2 [26] = experiment: Antiviral activity against Dengue virus 2 by CFI assay; type: functional, organism-based
dengue virus type 1 [27] = experiment: Antiviral activity against Dengue virus 1 by CFI assay; type: functional, organism-based
[28] = Drug uptake in C57BL/6 mouse spleen infected with Ebola virus at 3 mg/kg, iv administered 2 hrs prior to viral infection measured on day 2 and 5 post viral infection by mass spectrometry; type: ADME, organism-based; conditions: read-out: Drug uptake
dengue virus type 3 [29] = experiment: Antiviral activity against Dengue virus 3 infected in african green monkey Vero E6 cells assessed as inhibition of viral yield after 72 hrs by flow cytometry; type: functional, organism-based; conditions: Vero C1008, 72 h
dengue virus type 2 [30] = experiment: Antiviral activity against Dengue virus 2 infected in african green monkey Vero E6 cells assessed as inhibition of viral yield after 72 hrs by flow cytometry; type: functional, organism-based; conditions: Vero C1008, 72 h
dengue virus type 1 [31] = experiment: Antiviral activity against Dengue virus 1 infected in african green monkey Vero E6 cells assessed as inhibition of viral yield after 72 hrs by flow cytometry; type: functional, organism-based; conditions: Vero C1008, 72 h
dengue virus type 4 [32] = experiment: Antiviral activity against Dengue virus 4 infected in african green monkey Vero E6 cells assessed as inhibition of viral yield after 72 hrs by flow cytometry; type: functional, organism-based; conditions: Vero C1008, 72 h
[33] = Drug uptake in C57BL/6 mouse kidney infected with Ebola virus at 3 mg/kg, iv administered 2 hrs prior to viral infection measured on day 2 and 5 post viral infection by mass spectrometry; type: ADME, organism-based; conditions: read-out: Drug uptake
Genome polyprotein [34] = biological target: T1, Genome polyprotein (dengue virus type 2, UniProt P29990); experiment: Mixed noncompetitive inhibition of the Dengue virus 2 NS2B-NS3 protease expressed in Escherichia coli using Boc-GRR-AMC as substrate assessed as enzyme-substrate-inhibitor complex after 30 mins by Michaelis-Menten plot analysis
T1 sequence (P29990 1346-1475 limits assumed): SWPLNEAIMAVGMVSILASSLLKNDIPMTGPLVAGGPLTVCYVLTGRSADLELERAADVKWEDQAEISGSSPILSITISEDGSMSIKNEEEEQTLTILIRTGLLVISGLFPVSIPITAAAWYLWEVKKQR
T1 sequence (P29990 1476-2093 limits assumed): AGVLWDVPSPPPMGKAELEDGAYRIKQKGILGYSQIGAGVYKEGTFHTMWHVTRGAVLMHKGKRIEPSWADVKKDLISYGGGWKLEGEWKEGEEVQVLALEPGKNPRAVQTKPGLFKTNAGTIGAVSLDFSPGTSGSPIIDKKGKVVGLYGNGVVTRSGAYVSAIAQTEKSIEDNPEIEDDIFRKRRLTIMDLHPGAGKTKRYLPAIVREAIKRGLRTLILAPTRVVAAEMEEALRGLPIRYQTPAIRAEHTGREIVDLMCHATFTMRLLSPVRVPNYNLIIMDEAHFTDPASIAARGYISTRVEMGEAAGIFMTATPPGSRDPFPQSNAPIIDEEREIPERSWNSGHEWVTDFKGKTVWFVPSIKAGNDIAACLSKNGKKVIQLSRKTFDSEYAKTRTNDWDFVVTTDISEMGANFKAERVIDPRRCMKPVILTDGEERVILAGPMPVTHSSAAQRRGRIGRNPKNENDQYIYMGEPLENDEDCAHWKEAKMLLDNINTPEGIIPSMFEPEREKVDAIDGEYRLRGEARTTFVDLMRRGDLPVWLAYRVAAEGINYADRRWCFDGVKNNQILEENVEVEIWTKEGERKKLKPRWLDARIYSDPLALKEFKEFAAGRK

Genome polyprotein [35] = biological target: T1, Genome polyprotein; experiment: Mixed noncompetitive inhibition of the Dengue virus 2 NS2B-NS3 protease expressed in Escherichia coli using Boc-GRR-AMC as substrate assessed as enzyme-inhibitor complex after 30 mins by spectrofluorometry

## CCN(CCO)CCCC(C)Nc1ccnc2cc(Cl)ccc12 (stereo unspecified) [HYDROXYCHLOROQUINE]
Dengue virus type 2 [1]
  IC50: 9.7 to 12.9 µM
Dengue virus type 2 [2]
  IC50: 9.7 to 12.9 µM
Dengue virus type 2 [3]
  IC50: 9.7 to 12.9 µM
Dengue virus type 2 [4]
  IC50: 9.7 to 12.9 µM

## CC(=O)O[C@H]1C[C@H](O[C@H]2[C@@H](O)C[C@H](O[C@H]3[C@@H](O)C[C@H](O[C@H]4CC[C@@]5(C)[C@H](CC[C@@H]6[C@@H]5C[C@@H](O)[C@]5(C)[C@@H](C7=CC(=O)OC7)CC[C@]65O)C4)O[C@@H]3C)O[C@@H]2C)O[C@H](C)[C@H]1O[C@@H]1O[C@H](CO)[C@@H](O)[C@H](O)[C@H]1O [LANATOSIDE C]
Dengue virus type 2 [5]
  IC50: 0.5 to 1 µM
Dengue virus type 4 [6]
  IC50: 0.5 to 1 µM
Dengue virus type 3 [7]
  IC50: 0.5 to 1 µM
Dengue virus type 1 [8]
  IC50: 0.5 to 1 µM

## C/C(=N\Nc1ccccc1)c1sc(-c2cc(Cl)nc(Oc3ccc(Cl)cc3)c2)nc1C
West Nile virus [9]
  IC50: 3.8 µM
Yellow fever virus
  IC50: 1.6 µM
Dengue virus type 2 [10]
  IC50: 1.2 µM
[11]
  selectivity ratio: > 83

## COC(=O)c1c(-c2c(Cl)cccc2Cl)noc1-c1cnn(-c2cccc(Cl)c2)c1C(F)(F)F
Dengue virus type 2 [12]
  EC90: 0.0052 µM
West Nile virus [13]
  EC90: 0.00031 µM

## CC1=C(/C=C/C(C)=C/C=C/C(C)=C/C(=O)Nc2ccc(O)cc2)C(C)(C)CCC1 [FENRETINIDE]
Dengue virus type 1 [14]
  EC50: 0.8 to 2.6 µM
[15]
  IC50: 1 to 1.5 µM

## CC(C)(C)c1ccc(/C=C2\SC(=S)N(CCC(=O)O)C2=O)cc1
Dengue virus type 2 [16]
  EC50: 30.8 µM
[17]
  IC50: 7.3 µM

## COCCCCCCCCCN1C[C@H](O)[C@@H](O)[C@H](O)[C@H]1CO
Dengue virus type 2 [18]
  EC50: 17 µM
[19]
  bioavailability: 84%
[20]
  CC50: > 500 µM

## IVERMECTIN
Dengue virus type 3 [21]
  EC50: 1.2 to 1.6 µM
Dengue virus type 2 [22]
  EC50: 0.7 µM
Dengue virus type 4 [23]
  EC50: 1.2 to 1.6 µM
[24]
  IC50: 17 µM
West Nile virus [25]
  EC50: 4 µM
Dengue virus type 2 [26]
  EC50: 1.2 to 1.6 µM
Dengue virus type 1 [27]
  EC50: 1.2 to 1.6 µM

## Cc1cc(NCCCN(C)C)c2ccc3c(ccc4c(NCCCN(C)C)cc(C)nc43)c2n1
[28]
  concentration at 2 h: 19500 ng/g
Dengue virus type 3 [29]
  EC50: 0.4 to 0.9 µM
Dengue virus type 2 [30]
  EC50: 0.4 to 0.9 µM
Dengue virus type 1 [31]
  EC50: 0.4 to 0.9 µM
Dengue virus type 4 [32]
  EC50: 0.4 to 0.9 µM
[33]
  concentration at 2 h: 43100 ng/g

## O=C1Cc2ccc(F)cc2C[C@@H]1C1=Cc2ccc(F)cc2CC1
Genome polyprotein [34]
  Ki: 15 µM
Genome polyprotein [35]
  Ki: 7 µM
